Measurements published in patent publication US7687473B2, “5-amino-4-imidazolecarboxamide riboside and its nucleobase as potentiators of antifolate transport and metabolism” (Health Research, Inc., priority 2005, dated 2010).
Where two headings read alike, the source gives them in different places.

Tests used:
[1] = target: T1, reduced folate carrier (RFC) (Homo sapiens, UniProt P41440); assay: Inhibition of initial velocity of [3H]MTX influx by competitors; assay type: cell-based; settings: for IC50: IC50, inhibition of initial velocity of [3H]MTX influx
T1 construct: endogenous in cells; host or cells: CCRF-CEM (parental)
T1 sequence (P41440 1-591): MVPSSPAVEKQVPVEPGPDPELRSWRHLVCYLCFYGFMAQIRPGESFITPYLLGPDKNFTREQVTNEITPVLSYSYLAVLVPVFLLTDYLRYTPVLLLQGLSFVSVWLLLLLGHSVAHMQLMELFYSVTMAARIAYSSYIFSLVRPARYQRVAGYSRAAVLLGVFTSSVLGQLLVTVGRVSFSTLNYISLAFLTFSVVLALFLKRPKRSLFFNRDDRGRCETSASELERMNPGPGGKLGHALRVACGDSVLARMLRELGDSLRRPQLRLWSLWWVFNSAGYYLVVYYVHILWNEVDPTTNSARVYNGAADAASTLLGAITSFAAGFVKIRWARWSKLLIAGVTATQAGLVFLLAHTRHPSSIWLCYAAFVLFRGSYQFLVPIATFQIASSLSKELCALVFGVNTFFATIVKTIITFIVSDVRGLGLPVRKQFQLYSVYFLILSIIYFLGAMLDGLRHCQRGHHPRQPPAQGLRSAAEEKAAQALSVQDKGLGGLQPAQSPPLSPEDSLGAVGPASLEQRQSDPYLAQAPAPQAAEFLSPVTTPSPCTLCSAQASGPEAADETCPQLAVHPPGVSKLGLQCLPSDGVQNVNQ
Protocol: Duplicate samples were removed at 5 min and processed as described above.
Inhibition of the vi of uptake was measured after pre-incubation of CCRF-CEM cells either with TMTX alone (measuring inhibition at the RFC) or with TMTX+Z (measuring inhibition during Z potentiation). […] All studies were carried out in standard transport medium. Inhibitory potency was measured in two series of experiments and AMT was included in each series as an internal control. Values are average±range of two determinations. […] Values are average±range for duplicate determinations.

CCRF-CEM cells [2] = assay: [3H]leucovorin uptake in CCRF-CEM cells; assay type: cell-based, human
Protocol: (§1) Quantitation of folate and antifolate uptake. The method is essentially as follows. Briefly, logarithmically growing (3-5×10^5/ml) CCRF-CEM cells were harvested at room temperature by centrifugation at 1000×g for 5 min. After washing with the appropriate medium, cells were suspended at ≈2×10^7 cells/ml for use in transport studies. […] Anion-free MHS contains 250 mM sucrose and 20 mM HEPES, titrated to pH 7.4 with MgO. […] Uptake was measured as a function of time for 30 min (for rate and extent measurements) or over 5 min (studies requiring initial velocities). […] Uptake was terminated by diluting 100 μL samples into 1 ml of iced 0.9% NaCl. […] The supernatant was aspirated. The cell pellet was washed once with 1 ml iced 0.9% NaCl and centrifuged as above. The washed pellet was solubilized in 1 ml of 0.3% Triton X-100 by incubation for 60 min at 37° C. The solubilized pellet was transferred to a scintillation vial, 10 ml of Liquiscint (National Diagnostics, Atlanta, Ga.) was added and radioactivity was quantitated in a Beckman Model LS6500 liquid scintillation counter. Separate samples at the longest incubation time used in a particular experiment were harvested for HPLC analysis of intracellular contents as above, except that after the second wash the pellets were extracted with 1 ml boiling 0.1 M Na-phosphate, pH 5.5. The extract was clarified by centrifugation and the supernatant was filtered through an MPS-1 filter unit (Amicon) prior to HPLC analysis.

CCRF-CEM cells [3] = assay: cells; assay type: cell-based, human
Protocol: Inhibition of growth of human cell lines in vitro. Inhibition of growth of CCRF-CEM in continuous and intermittent drug exposures was measured. EC50 values were determined from plots of percent control growth versus the logarithm of drug concentration.
[…]; n=2). […]; n=2). Values presented are average±S.D. for n>2 and average±range for n=2. […] […]; EC50 data may therefore underestimate the biological potency.

CCRF-CEM cells [4] = assay: [3H]MTX uptake (initial velocity and 30 min accumulation) in CCRF-CEM cells; assay type: cell-based, human; settings: for Potentiation of [3H]MTX uptake at 30 min: compound at 0.5 mM, 10 min pre-incubation with TMTX
Protocol: as §1

CCRF-CEM cells [5] = assay: Accumulation of DDATHF polyglutamates in CCRF-CEM cells; assay type: cell-based, human; settings: for DDATHF-Glun, N = 1 / DDATHF-Glun, N = 2 / DDATHF-Glun, N = 3 / DDATHF-Glun, N = 4 / DDATHF-Glun, N = 5 / DDATHF-Glun, N = 6 / DDATHF-Glun, Total / DDATHF-Glun, Total N ≧ 3: 4 hr, 1 μM [3H]DDATHF
Protocol: At the end of the exposure cells were rapidly chilled to 4 degrees C., harvested by centrifugation at 1000×g for 5 min, washed twice with iced 0.9% NaCl by centrifugation in the same manner. One mL of boiling 50 mM Na-phosphate, pH 5.5 was added, the pellet was triturated and the sample boiled for 5 min. The sample was rapidly cooled to 4 degrees C. Debris was removed by centrifugation as above. The supernatant was further clarified by centrifugation through an Amicon MPS-1 filter unit. […] A suitable volume was injected onto a reversed-phase HPLC column (C18) and eluted with a gradient of from 4-14% acetonitrile over about 43 min. One min fractions were collected and, after addition of 10 ml scintillation fluid, were quantitated by liquid scintillation counting. […]

[6] = +TMTX + Z, 10 min pre-incubation with 1 μM TMTX and 0.5 mM Z (Z potentiated influx)
[7] = +TMTX, 10 min pre-incubation with 1 μM TMTX alone (inhibition of the RFC)

Nc1nc2c(c(=O)[nH]1)N(C=O)[C@H](CNc1ccc(C(=O)N[C@@H](CCC(=O)O)C(=O)O)cc1)CN2 [(6R,S)-LV, [6R,S]-5-formyltetrahydrofolate]
IC50 [1, 6]: 2700 nM
IC50 [1, 7]: 2600 ± 100 nM

Cc1ccc2nc(N)[nH]c(=O)c2c1Sc1ccncc1 [AG337]
Effect on potentiation of LV uptake induced by TMTX+Z (CCRF-CEM cells [2]; 20 μM): completely block
Potentiation of [3H]LV uptake (CCRF-CEM cells [2]; 10 min preincubation at 2 or 20 μM, presence or absence of Z): does not potentiate
EC50 (CCRF-CEM cells [3]; read-out: EC50 for growth inhibition): 600 nM

NC(=O)NC1NC(=O)NC1=O (stereo not drawn) [ALN, allantoin]
Potentiation of [3H]MTX uptake (CCRF-CEM cells [4]; 500 μM): does not potentiate
Inhibition of potentiation by 500 μM Z (CCRF-CEM cells [4]; up to 100 μM): does not inhibit potentiation

Nc1nc(N)c2nc(CNc3ccc(C(=O)N[C@@H](CCC(=O)O)C(=O)O)cc3)cnc2n1 [AMT, 4-amino-pteroylglutamic acid]
Increase of growth inhibitory potency (EC50) by Z (CCRF-CEM cells [3]; 0-24 hr pulse of 120 hr, 100 μM Z): ≈ 2 fold
EC50 (CCRF-CEM cells [3]; Homo sapiens, CCRF-CEM, drug exposure 0-24/120 hr, [Z] 0 μM, read-out: EC50): 6.1 ± 1.3 nM
EC50 (CCRF-CEM cells [3]; Homo sapiens, CCRF-CEM, drug exposure 0-24/120 hr, [Z] 100 μM, read-out: EC50): 3.7 ± 0.3 nM

Nc1ncnc2c1ncn2[C@@H]1O[C@H](CO)[C@@H](O)[C@H]1O [Adenosine, adenosine]
Ability to potentiate [3H]MTX uptake (CCRF-CEM cells [4]): unable to potentiate
Potentiation of [3H]MTX uptake at 30 min (CCRF-CEM cells [4]): do not potentiate

Cc1nc2ccc3ccc(CNc4ccc5c(c4)CN([C@@H](CCC(=O)O)C(=O)O)C5=O)cc3c2c(=O)[nH]1 [BW1843U89, (S)-2-(5-(((1,2-dihydro-3-methyl-1-oxobenzo(F)quinazolin-9-yl)methyl)-amino)-1-oxo-2-isoindolinyl)glutaric acid]
IC50 [1, 6]: 1300 ± 400 nM
IC50 [1, 7]: 1000 ± 100 nM

Nc1nc2c(c(=O)[nH]1)CC(CCc1ccc(C(=O)N[C@@H](CCC(=O)O)C(=O)O)cc1)CN2 (stereo partly drawn) [DDATHF, 5,10-dideazatetrahydrofolate]
Effect of Z on DDATHF uptake (CCRF-CEM cells [5]; 30 min incubation): no effect of Z was observed
Increase of total drug accumulation by Z (CCRF-CEM cells [5]; 4 hr incubation with 1 μM [3H]DDATHF): 11%
DDATHF-Glun, N = 1 (CCRF-CEM cells [5]; +Z): 17.5 ± 1.3 pmol/10^7 cells
DDATHF-Glun, N = 2 (CCRF-CEM cells [5]; +Z): 5.9 ± 0.1 pmol/10^7 cells
DDATHF-Glun, N = 3 (CCRF-CEM cells [5]; +Z): 10.1 ± 0.1 pmol/10^7 cells
DDATHF-Glun, N = 4 (CCRF-CEM cells [5]; +Z): 15.2 ± 0.8 pmol/10^7 cells
DDATHF-Glun, N = 5 (CCRF-CEM cells [5]; +Z): 29.8 ± 0.3 pmol/10^7 cells
DDATHF-Glun, N = 6 (CCRF-CEM cells [5]; +Z): 33.0 ± 2.3 pmol/10^7 cells
DDATHF-Glun, Total (CCRF-CEM cells [5]; +Z): 111.3 pmol/10^7 cells
DDATHF-Glun, Total N ≧ 3 (CCRF-CEM cells [5]; +Z): 88.0 pmol/10^7 cells
DDATHF-Glun, N = 1 (CCRF-CEM cells [5]; −Z): 14.8 ± 0.8 pmol/10^7 cells
DDATHF-Glun, N = 2 (CCRF-CEM cells [5]; −Z): 4.9 ± 0.8 pmol/10^7 cells
DDATHF-Glun, N = 3 (CCRF-CEM cells [5]; −Z): 9.2 ± 0.9 pmol/10^7 cells
DDATHF-Glun, N = 4 (CCRF-CEM cells [5]; −Z): 13.3 ± 2.1 pmol/10^7 cells
DDATHF-Glun, N = 5 (CCRF-CEM cells [5]; −Z): 28.1 ± 2.1 pmol/10^7 cells
DDATHF-Glun, N = 6 (CCRF-CEM cells [5]; −Z): 30.5 ± 0.9 pmol/10^7 cells
DDATHF-Glun, Total (CCRF-CEM cells [5]; −Z): 100.8 pmol/10^7 cells
DDATHF-Glun, Total N ≧ 3 (CCRF-CEM cells [5]; −Z): 81.1 pmol/10^7 cells

Nc1nc2ncc(CNc3ccc(C(=O)N[C@@H](CCC(=O)O)C(=O)O)cc3)nc2c(=O)[nH]1 [PteGlu, folic acid]
IC50 [1, 6]: 18500 ± 1100 nM
IC50 [1, 7]: 18600 ± 600 nM
Plateau in inhibition of [3H]MTX influx ([1]; observed ±Z, data not shown): 60-70%

NC(=O)c1nc[nH]c1N [Z-base, 5-amino-4-imidazolecarboxamide]
Potentiation of [3H]MTX uptake at 30 min (CCRF-CEM cells [4]): potentiates

Nc1ncnc2nc[nH]c12 [adenine]
Potentiation of [3H]MTX uptake at 30 min (CCRF-CEM cells [4]): do not potentiate

Nc1ncnc2c1ncn2[C@H]1C[C@H](O)[C@@H](CO)O1 [deoxyadenosine]
Potentiation of [3H]MTX uptake at 30 min (CCRF-CEM cells [4]): do not potentiate

Nc1nc2c(ncn2[C@H]2C[C@H](O)[C@@H](CO)O2)c(=O)[nH]1 [deoxyguanosine]
Potentiation of [3H]MTX uptake at 30 min (CCRF-CEM cells [4]): do not potentiate
